From patent US6313153A, “Compositions and methods for treating nephritis and inhibiting TGF -β related conditions using pyridylacrylamide derivatives” (Tsumura & Co., priority 1997, dated 2001)

Legend:
total TGF-β1 = assay: production of total TGF-β1 in glomeruli isolated from nephritic mice (ELISA); assay type: cell-based, BALB/c male mice; settings: Mus musculus, 10^-6 M, 48 hours, supernatant acid treated, read-out: Inhibition rate (%) of production of total TGF-β1
Procedure: BALB/c male mice were adapted in a feeding chamber for 1 week before subjecting to experiments. Nephritis was induced by subcutaneously injecting an emulsion of rabbit γ-globulin and Freund's complete adjuvant on the back in a dose amount of 1.0 mg per mouse and, after 5 days (on the zeroth day), intravenously injecting rabbit anti-mouse GBM serum in a dose amount of 0.1 ml per mouse. After 1 day from the injection of anti-serum, the glomeruli were isolated through sieves with different sizes and washed twice. Each compound to be tested (10^-6 M) was added while the solvent was added to the control groups. The glomeruli were incubated in RPMI-1640 serum-free medium for 48 hours. The amount of production of active TGF-β1 was determined by measuring the supernatant itself after the incubation for 48 hours in ELSA method. Further, the supernatant was treated with hydrochloric acid and the pH was returned with sodium hydroxide. The total amount of TGF-β1 produced in the supernatant was measured in ELISA method. The protein concentration in the medium was also measured as glomeruli protein concentration. The inhibition rate was calculated by the following equation.
Inhibition rate (%)=100×(value of control group-value of sample)/(value of control group)

anti-GBM nephritic mice = assay: anti-GBM nephritic mice: proteinuria, serum cholesterol, blood urea nitrogen and serum creatinine; assay type: in vivo, BALB/c mice; settings: for Total Evaluation: 3 × (number of + in proteinuria) + (number of + in serum parameter); for Proteinuria 5th day: 5th day from intravenous injection of anti-GBM serum; for Proteinuria 5th day / Proteinuria 10th day / Serum Parameter BUN (blood urea nitrogen) / Serum Parameter S-Ch (serum cholesterol) / Serum Parameter S-Cr (serum creatinine): oral; for Proteinuria 10th day: 10th day from intravenous injection of anti-GBM serum; for Serum Parameter BUN (blood urea nitrogen) / Serum Parameter S-Ch (serum cholesterol) / Serum Parameter S-Cr (serum creatinine): 11th day;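 as to Proteinuria 10th day: minus not effective plus trend double p<0.05 triple p<0.01 quadruple p<0.001 improvement vs control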;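 as to Proteinuria 5th day: minus not effective plus trend double p<0.05 triple p<0.01 quadruple p<0.001 improvement vs control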;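 as to Serum Parameter BUN (blood urea nitrogen): minus not effective plus trend double p<0.05 triple p<0.01 quadruple p<0.001 improvement vs control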;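 as to Serum Parameter S-Ch (serum cholesterol): minus not effective plus trend double p<0.05 triple p<0.01 quadruple p<0.001 improvement vs control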
Procedure: BALB/c mice (5 weeks old, purchased from Nippon Charles Liver) were quarantined and adapted for about 1 week before subjecting to experiments. These mice were divided into several groups for the experiments so that average body weights and standard deviations were almost identical in all groups. Mouse anti-GBM (glomerular basement membrane) nephritis was caused by immunizing the mice with rabbit γ-globulin (1 mg) with Freund's complete adjuvant and intravenously injecting rabbit anti-mouse GBM serum on the fifth day from the immunization. Each compound tested was forcedly orally administered via an oral sonde almost simultaneously with the intravenous injection of the anti-GBM serum. On the 5th and 10th days from the intravenous injection, urine was taken by a plastic metabolic cage and proteinuria was measured (Ohtsuka Tonein TP2). On the 11th day, blood was taken by cutting the carotid and serum cholesterol (S--Ch), blood urea nitrogen (BUN) and serum creatinine (S--Cr) were measured by Toshiba TBA-380 autoanalyzer.

| Structure (SMILES) | inhibition at 1 µM (total TGF-β1) [%] | Total Evaluation (anti-GBM nephritic mice) | Proteinuria 5th day (anti-GBM nephritic mice) | Proteinuria 10th day (anti-GBM nephritic mice) | Serum Parameter BUN (blood urea nitrogen) (anti-GBM nephritic mice) | Serum Parameter S-Ch (serum cholesterol) (anti-GBM nephritic mice) | Serum Parameter S-Cr (serum creatinine) (anti-GBM nephritic mice) |
| --- | --- | --- | --- | --- | --- | --- | --- |
| O=C(O)COc1cccc(CCNC(=S)/C=C/c2cccnc2)c1 [Compound 151] | 19.1 |  |  |  |  |  |  |
| COc1ccc(CCNC(=O)/C=C/c2cccnc2)cc1OC [Compound 55] | 75.7 | 17 | + | +++ | ++ | +++ | - |
| COc1ccc(CCN(C)C(=O)/C=C/c2cccnc2)cc1 [Compound 49] | 59 | 7 | - | + | + | + | ++ |
| COc1ccc(CCN(C)C(=O)/C(C#N)=C/c2cccnc2)cc1OC [Compound 2] | 56.7 | 13 | + | +++ | - | - | + |
| COc1ccc(CCN(C)C(=O)/C=C/c2ccccn2)cc1OC [Compound 153] | 31 |  |  |  |  |  |  |
| O=C(/C=C/c1cccnc1)NCCc1cccc(OCC(=O)NO)c1 [Compound 120] | 56.9 |  |  |  |  |  |  |
| O=C(O)COc1ccc(CCNC(=O)/C=C/c2cccnc2)cc1 [Compound 149] | 35.9 |  |  |  |  |  |  |
| COc1ccc(CCN(C)C(=O)/C=C/c2cccnc2)cc1O [Compound 51] | 56.8 |  |  |  |  |  |  |
| COc1ccc(CCN(C)C(=O)/C=C/c2ccncc2)cc1OC [Compound 154] | 53.4 |  |  |  |  |  |  |
| CCNC(=O)Oc1cccc(CCNC(=O)/C=C/c2cccnc2)c1 [Compound 127, (E)-N-[3-[(ethylcarbamoyl)oxy]-phenethyl]-3-(3-pyridyl)-2-propenoic acid amide] |  | 17 | +++ | ++ | - | ++ | - |
| COc1cccc(CCNC(=O)/C=C/c2cccnc2)c1 [Compound 41] |  | 8 | + | - | - | +++ | ++ |
| COc1ccc(O)c(CCNC(=O)/C=C/c2cccnc2)c1 [Compound 50] |  | 18 | ++ | +++ | - | +++ | - |
| COc1cc(CCN(C)C(=O)/C=C/c2cccnc2)cc(OC)c1OC.Cl [Compound 9, (E)-N-methyl-3-(3-pyridyl)-N-(3,4,5-trimethoxyphenethyl)-2-propenoic acid amide hydrochloride] |  | 12 | + | ++ | + | + | + |
| O=C(/C=C/c1cccnc1)NCCc1cc(O)ccc1O [Compound 89] |  | 15 | ++ | ++ | + | ++ | - |
| COc1cc(C(O)CN(C)C(=O)/C=C/c2cccnc2)ccc1O (stereo not drawn) [Compound 158, (E)-N-[2-hydroxy-2-(3-methoxy-4-hydroxyphenyl)ethyl]-N-methyl-3-(3-pyridyl)-2-propenoic acid amide] |  | 7 | + | + | - | + | - |
| CCOC(=O)COc1cccc(C(=O)CNC(=O)/C=C/c2cccnc2)c1 [Compound 161] |  | 10 | ++ | + | - | + | - |
| COc1ccc(OC)c(CCNC(=O)/C=C/c2cccnc2)c1 [Compound 39] |  | 21 | ++ | +++ | ++ | ++ | ++ |
| CN(CCc1ccc(-c2ccccc2)cc1)C(=O)/C=C/c1cccnc1 [Compound 52] |  | 10 | + | + | + | + | ++ |
| COc1ccc(CCN(C)C(=O)/C=C/c2cccnc2)c(OC)c1 [Compound 14] |  | 7 | - | + | + | + | - |
| CCOC(=O)COc1cccc(C(O)CNC(=O)/C=C/c2cccnc2)c1 (stereo not drawn) [Compound 159, ethyl [3-[1-hydroxy-2-((E) -3-(3-pyridyl)acryloylamino]ethyl]phenoxy]acetate] |  | 10 | ++ | + | - | + | - |
| CCOC(=O)COc1ccc(CCNC(=O)/C=C/c2cccnc2)cc1 [Compound 101] |  | 8 | - | ++ | - | - | ++ |
| O=C(/C=C/c1cccnc1)NCC(=O)c1cccc(O)c1 [Compound 160, (E)-N-(3-hydroxyphenacyl)-3-(3-pyridyl)-2-propenoic acid amide] |  | 14 | +++ | + | - | ++ | - |
| COc1ccc(OC)c(CCN(C)C(=O)/C=C/c2cccnc2)c1 [Compound 15] |  | 11 | + | + | + | + | + |
| CCOC(=O)COc1cccc(CCNC(=O)/C=C/c2cccnc2)c1 [Compound 100] |  | 6 | - | + | + | + | + |
| O=C(/C=C/c1cccnc1)NCc1cccc(O)c1 [Compound 90] |  | 17 | ++ | +++ | + | - | + |
| CSc1ccc(CCN(C)C(=O)/C=C/c2cccnc2)cc1 [Compound 53] |  | 6 | - | + | - | - | +++ |
